Measurements from patent US20100160454A1, “ANTIMICROBIAL AGENTS, COMPOSITIONS AND PRODUCTS CONTAINING THE SAME, AND METHODS OF USING THE COMPOSITIONS AND PRODUCTS” (Eastman Chemical Company, priority 2008, published 2010).

Assays:
Experiment in all cases: Microbiological challenge testing in BPW broth, graded subculture counts
Format in all cases: cell-based
[1] = system: Aspergillus niger Wild type; details: A. niger
Method in brief: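 Wild-type A. niger, grown in TSB with 1% dextrose at 22 °C and on SABD until sporulation, was adjusted to 1.0×10^8 spores/vegetative cells (hemocytometer). It was inoculated in triplicate into BPW with 1% dextrose to give 10^5 to 10^6 CFU/mL at time zero. Counts were by spread plate on SABD, ≥48 h at 22 °C, CFU/mL = count × dilution factor.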

[2] = system: Streptococcus mutans ATCC 35668
Method in brief: (§1)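 Serial 1:10 dilutions were made in pH 7.2 phosphate buffer and spread-plated onto PCA, and colonies were counted after 48 h or more at 35 °C. In the challenge, BPW–dextrose tubes containing the test material received inoculum at 10^5–10^6 CFU/mL at time zero. Controls without test material served as reference.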

[3] = system: Burkholderia cepacia Wild type; details: B. cepacia
Method in brief: as §1

[4] = system: Escherichia coli ATCC 25922; details: E. Coli
Method in brief: as §1

Aeromonas sp. Wild type = system: Aeromonas sp. Wild type
Method in brief: as §1

[5] = system: Staphylococcus aureus ATCC 25923; details: S. aureus
Method in brief: as §1

**Q.** Which Grade ([1]; 0.5% (wt/vol), 3 day) does the source give for O=C([O-])CN(CCN(CC(=O)[O-])CC(=O)O)CC(=O)O.[Na+].[Na+] [EDTA, Na2EDTA] here?
**A.** 4

**Q.** And the Grade ([1]; 0.5% (wt/vol), 13 day)?
**A.** 4

**Q.** And the Grade ([1]; 0.5% (wt/vol), 30 day)?
**A.** 4

**Q.** What about the Grade ([1]; 1.25% (wt/vol), 3 day) of the same molecule?
**A.** 2 (Countable (10 to 100 colonies))

**Q.** What about the Grade ([1]; 1.25% (wt/vol), 13 day) of the same molecule?
**A.** 1 (Countable (1 to 10 colonies))

**Q.** What about the Grade ([1]; 1.25% (wt/vol), 30 day) of the same molecule?
**A.** 3

**Q.** What about the Grade ([1]; 2.5% (wt/vol), 3 day) of the same molecule?
**A.** 0

**Q.** And the Grade ([1]; 2.5% (wt/vol), 13 day)?
**A.** 0

**Q.** What about the Grade ([1]; 2.5% (wt/vol), 30 day) of the same molecule?
**A.** 0

**Q.** And the Grade ([1]; 5.0% (wt/vol), 3 day)?
**A.** 0

**Q.** And the Grade ([1]; 5.0% (wt/vol), 13 day)?
**A.** 0

**Q.** What about the Grade ([1]; 5.0% (wt/vol), 30 day) of the same molecule?
**A.** 0

**Q.** What about the “S. mutans growth grade, 3 day” value ([2]; 0.5% weight/volume) of the same molecule?
**A.** 4 (1000 to 10,000 colonies countable (thus 10,000 CFU/mL to 100,000 CFU/mL))

**Q.** What about the “S. mutans growth grade, 13 day” value ([2]; 0.5% weight/volume) of the same molecule?
**A.** 4 (1000 to 10,000 colonies countable (thus 10,000 CFU/mL to 100,000 CFU/mL))

**Q.** What about the “S. mutans growth grade, 30 day” value ([2]; 0.5% weight/volume) of the same molecule?
**A.** 4 (1000 to 10,000 colonies countable (thus 10,000 CFU/mL to 100,000 CFU/mL))

**Q.** What about the “S. mutans growth grade, 3 day” value ([2]; 1.25% weight/volume) of the same molecule?
**A.** 2 (52 to 100 colonies counted (thus 520 to 1000 CFU/mL))

**Q.** What about the “S. mutans growth grade, 13 day” value ([2]; 1.25% weight/volume) of the same molecule?
**A.** 2 (52 to 100 colonies counted (thus 520 to 1000 CFU/mL))

**Q.** And the “S. mutans growth grade, 30 day” value ([2]; 1.25% weight/volume)?
**A.** 2 (52 to 100 colonies counted (thus 520 to 1000 CFU/mL))

**Q.** What about the “S. mutans growth grade, 3 day” value ([2]; 2.5% weight/volume) of the same molecule?
**A.** 0

**Q.** What about the “S. mutans growth grade, 13 day” value ([2]; 2.5% weight/volume) of the same molecule?
**A.** 0

**Q.** What about the “S. mutans growth grade, 30 day” value ([2]; 2.5% weight/volume) of the same molecule?
**A.** 0

**Q.** What about the “S. mutans growth grade, 3 day” value ([2]; 5.0% weight/volume) of the same molecule?
**A.** 0

**Q.** What about the “S. mutans growth grade, 13 day” value ([2]; 5.0% weight/volume) of the same molecule?
**A.** 0

**Q.** And the “S. mutans growth grade, 30 day” value ([2]; 5.0% weight/volume)?
**A.** 0

**Q.** What about the Grade ([3]; 0.5% (wt/vol), 3 day) of the same molecule?
**A.** 4 (1000 to 10,000 colonies countable (thus 10,000 CFU/mL to 100,000 CFU/mL))

**Q.** And the Grade ([3]; 0.5% (wt/vol), 14 day)?
**A.** 4 (1000 to 10,000 colonies countable (thus 10,000 CFU/mL to 100,000 CFU/mL))

**Q.** And the Grade ([3]; 0.5% (wt/vol), 30 day)?
**A.** 4 (1000 to 10,000 colonies countable (thus 10,000 CFU/mL to 100,000 CFU/mL))

**Q.** And the Grade ([3]; 1.25% (wt/vol), 3 day)?
**A.** 3 (100 to 1000 colonies (thus 1000 to 10,000 CFU/mL))

**Q.** And the Grade ([3]; 1.25% (wt/vol), 14 day)?
**A.** 2 (52 to 100 colonies counted (thus 520 to 1000 CFU/mL))

**Q.** What about the Grade ([3]; 1.25% (wt/vol), 30 day) of the same molecule?
**A.** 2 (52 to 100 colonies counted (thus 520 to 1000 CFU/mL))

**Q.** What about the Grade ([3]; 2.5% (wt/vol), 3 day) of the same molecule?
**A.** 1 (0 to 51 colonies counted (thus 10 to 510 CFU/mL based on 0.1-mL sample))

**Q.** What about the Grade ([3]; 2.5% (wt/vol), 14 day) of the same molecule?
**A.** 0

**Q.** What about the Grade ([3]; 2.5% (wt/vol), 30 day) of the same molecule?
**A.** 0

**Q.** What about the Grade ([3]; 5.0% (wt/vol), 3 day) of the same molecule?
**A.** 0

**Q.** What about the Grade ([3]; 5.0% (wt/vol), 14 day) of the same molecule?
**A.** 0

**Q.** And the Grade ([3]; 5.0% (wt/vol), 30 day)?
**A.** 0

**Q.** What about the Grade ([4]; 0.5% (wt/vol), 3 day) of the same molecule?
**A.** 5 (More than 10,000 colonies estimated (thus more than 100,000 CFU/mL))

**Q.** What about the Grade ([4]; 0.5% (wt/vol), 14 day) of the same molecule?
**A.** 5 (More than 10,000 colonies estimated (thus more than 100,000 CFU/mL))

**Q.** What about the Grade ([4]; 0.5% (wt/vol), 30 day) of the same molecule?
**A.** 5 (More than 10,000 colonies estimated (thus more than 100,000 CFU/mL))

**Q.** What about the Grade ([4]; 1.25% (wt/vol), 3 day) of the same molecule?
**A.** 4 (1000 to 10,000 colonies countable (thus 10,000 CFU/mL to 100,000 CFU/mL))

**Q.** What about the Grade ([4]; 1.25% (wt/vol), 14 day) of the same molecule?
**A.** 4 (1000 to 10,000 colonies countable (thus 10,000 CFU/mL to 100,000 CFU/mL))

**Q.** What about the Grade ([4]; 1.25% (wt/vol), 30 day) of the same molecule?
**A.** 4 (1000 to 10,000 colonies countable (thus 10,000 CFU/mL to 100,000 CFU/mL))

**Q.** And the Grade ([4]; 2.5% (wt/vol), 3 day)?
**A.** 0

**Q.** And the Grade ([4]; 2.5% (wt/vol), 14 day)?
**A.** 0

**Q.** And the Grade ([4]; 2.5% (wt/vol), 30 day)?
**A.** 0

**Q.** What about the Grade ([4]; 5.0% (wt/vol), 3 day) of the same molecule?
**A.** 0

**Q.** What about the Grade ([4]; 5.0% (wt/vol), 14 day) of the same molecule?
**A.** 0

**Q.** And the Grade ([4]; 5.0% (wt/vol), 30 day)?
**A.** 0

**Q.** What about the “Aeromonas sp growth grade, 3 day” value (Aeromonas sp. Wild type; 0.5% weight/volume) of the same molecule?
**A.** 5 (More than 10,000 colonies estimated (thus more than 100,000 CFU/mL))

**Q.** And the “Aeromonas sp growth grade, 14 day” value (Aeromonas sp. Wild type; 0.5% weight/volume)?
**A.** 4 (1000 to 10,000 colonies countable (thus 10,000 CFU/mL to 100,000 CFU/mL))

**Q.** What about the “Aeromonas sp growth grade, 30 day” value (Aeromonas sp. Wild type; 0.5% weight/volume) of the same molecule?
**A.** 4 (1000 to 10,000 colonies countable (thus 10,000 CFU/mL to 100,000 CFU/mL))

**Q.** And the “Aeromonas sp growth grade, 3 day” value (Aeromonas sp. Wild type; 1.25% weight/volume)?
**A.** 4 (1000 to 10,000 colonies countable (thus 10,000 CFU/mL to 100,000 CFU/mL))

**Q.** What about the “Aeromonas sp growth grade, 14 day” value (Aeromonas sp. Wild type; 1.25% weight/volume) of the same molecule?
**A.** 4 (1000 to 10,000 colonies countable (thus 10,000 CFU/mL to 100,000 CFU/mL))

**Q.** And the “Aeromonas sp growth grade, 30 day” value (Aeromonas sp. Wild type; 1.25% weight/volume)?
**A.** 4 (1000 to 10,000 colonies countable (thus 10,000 CFU/mL to 100,000 CFU/mL))

**Q.** And the “Aeromonas sp growth grade, 3 day” value (Aeromonas sp. Wild type; 2.5% weight/volume)?
**A.** 3 (100 to 1000 colonies (thus 1000 to 10,000 CFU/mL))

**Q.** And the “Aeromonas sp growth grade, 14 day” value (Aeromonas sp. Wild type; 2.5% weight/volume)?
**A.** 2 (52 to 100 colonies counted (thus 520 to 1000 CFU/mL))

**Q.** And the “Aeromonas sp growth grade, 30 day” value (Aeromonas sp. Wild type; 2.5% weight/volume)?
**A.** 1 (0 to 51 colonies counted (thus 10 to 510 CFU/mL based on 0.1-mL sample))

**Q.** What about the “Aeromonas sp growth grade, 3 day” value (Aeromonas sp. Wild type; 5.0% weight/volume) of the same molecule?
**A.** 1 (0 to 51 colonies counted (thus 10 to 510 CFU/mL based on 0.1-mL sample))

**Q.** And the “Aeromonas sp growth grade, 14 day” value (Aeromonas sp. Wild type; 5.0% weight/volume)?
**A.** 0

**Q.** What about the “Aeromonas sp growth grade, 30 day” value (Aeromonas sp. Wild type; 5.0% weight/volume) of the same molecule?
**A.** 0

**Q.** And the Grade ([5]; 0.5% (wt/vol), 3 day)?
**A.** 4 (1000 to 10,000 colonies countable (thus 10,000 CFU/mL to 100,000 CFU/mL))

**Q.** What about the Grade ([5]; 0.5% (wt/vol), 14 day) of the same molecule?
**A.** 4 (1000 to 10,000 colonies countable (thus 10,000 CFU/mL to 100,000 CFU/mL))

**Q.** What about the Grade ([5]; 0.5% (wt/vol), 30 day) of the same molecule?
**A.** 4 (1000 to 10,000 colonies countable (thus 10,000 CFU/mL to 100,000 CFU/mL))

**Q.** And the Grade ([5]; 1.25% (wt/vol), 3 day)?
**A.** 2.7

**Q.** What about the Grade ([5]; 1.25% (wt/vol), 14 day) of the same molecule?
**A.** 2 (52 to 100 colonies counted (thus 520 to 1000 CFU/mL))

**Q.** And the Grade ([5]; 1.25% (wt/vol), 30 day)?
**A.** 2 (52 to 100 colonies counted (thus 520 to 1000 CFU/mL))

**Q.** What about the Grade ([5]; 2.5% (wt/vol), 3 day) of the same molecule?
**A.** 1 (0 to 51 colonies counted (thus 10 to 510 CFU/mL based on 0.1-mL sample))

**Q.** And the Grade ([5]; 2.5% (wt/vol), 14 day)?
**A.** 0.3

**Q.** And the Grade ([5]; 2.5% (wt/vol), 30 day)?
**A.** 0.3

**Q.** What about the Grade ([5]; 5.0% (wt/vol), 3 day) of the same molecule?
**A.** 0

**Q.** And the Grade ([5]; 5.0% (wt/vol), 14 day)?
**A.** 0

**Q.** What about the Grade ([5]; 5.0% (wt/vol), 30 day) of the same molecule?
**A.** 0
